{"source": "PubChem BioAssay (NCI)", "experiment_in_all_cases": "DTP human tumour cell line panel, 48 h", "key": {"[1]": {"system": "786-0 renal"}, "[2]": {"system": "A498 renal"}, "[3]": {"system": "A549 NSCLC"}, "[4]": {"system": "ACHN renal"}, "[5]": {"system": "CAKI-1 renal"}, "[6]": {"system": "CCRF-CEM leukemia"}, "[7]": {"system": "COLO 205 colon"}, "[8]": {"system": "DLD-1 colon"}, "[9]": {"system": "DMS 273 small cell lung"}, "[10]": {"system": "EKVX NSCLC"}, "[11]": {"system": "HCC-2998 colon"}, "[12]": {"system": "HCT-116 colon"}, "[13]": {"system": "HCT-15 colon"}, "[14]": {"system": "HOP-62 NSCLC"}, "[15]": {"system": "HT29 colon"}, "[16]": {"system": "IGROV1 ovarian"}, "[17]": {"system": "K-562 leukemia"}, "[18]": {"system": "KM12 colon"}, "[19]": {"system": "KM20L2 colon"}, "[20]": {"system": "LXFL 529 NSCLC"}, "[21]": {"system": "M14 melanoma"}, "[22]": {"system": "M19-MEL melanoma"}, "[23]": {"system": "MALME-3M melanoma"}, "[24]": {"system": "MOLT-4 leukemia"}, "[25]": {"system": "NCI-H226 lung"}, "[26]": {"system": "NCI-H23 lung"}, "[27]": {"system": "NCI-H522 lung"}, "[28]": {"system": "OVCAR-3 ovarian"}, "[29]": {"system": "OVCAR-4 ovarian"}, "[30]": {"system": "OVCAR-5 ovarian"}, "[31]": {"system": "OVCAR-8 ovarian"}, "[32]": {"system": "RXF 393 renal"}, "[33]": {"system": "RXF-631 renal"}, "[34]": {"system": "SF-268 CNS"}, "[35]": {"system": "SF-295 CNS"}, "[36]": {"system": "SF-539 CNS"}, "[37]": {"system": "SK-MEL-2 melanoma"}, "[38]": {"system": "SK-MEL-28 melanoma"}, "[39]": {"system": "SK-MEL-5 melanoma"}, "[40]": {"system": "SK-OV-3 ovarian"}, "[41]": {"system": "SN12C renal"}, "[42]": {"system": "SNB-19 CNS"}, "[43]": {"system": "SNB-75 CNS"}, "[44]": {"system": "SNB-78 CNS"}, "[45]": {"system": "SR leukemia"}, "[46]": {"system": "SW-620 colon"}, "[47]": {"system": "TK-10 renal"}, "[48]": {"system": "U251 CNS"}, "[49]": {"system": "UACC-257 melanoma"}, "[50]": {"system": "UACC-62 melanoma"}, "[51]": {"system": "UO-31 renal"}, "[52]": {"system": "XF 498 CNS"}}, "note": "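Values below derive from 48-hour exposures of cells grown in 96-well plates, with endpoints linearly interpolated between the two concentrations bracketing the appropriate inhibition level. GI50 = concentration required for 50% inhibition of growth. TGI: total growth inhibition.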", "data": [{"smiles": "CC(=O)CC(=O)Nc1c(C)[c]([Hg][O]C(C)=O)c(C)[c]([Hg][O]C(C)=O)[c]1[Hg][O]C(C)=O", "values": [{"measurement": "GI50", "setting": "[1]", "value": 10.9, "unit": "µM"}, {"measurement": "TGI", "setting": "[1]", "value": 24.4, "unit": "µM"}, {"measurement": "GI50", "setting": "[2]", "value": 15.3, "unit": "µM"}, {"measurement": "TGI", "setting": "[2]", "value": 28.8, "unit": "µM"}, {"measurement": "GI50", "setting": "[3]", "value": 17.1, "unit": "µM"}, {"measurement": "TGI", "setting": "[3]", "value": 34.2, "unit": "µM"}, {"measurement": "GI50", "setting": "[4]", "value": 14.2, "unit": "µM"}, {"measurement": "TGI", "setting": "[4]", "value": 27.3, "unit": "µM"}, {"measurement": "GI50", "setting": "[5]", "value": 18.6, "unit": "µM"}, {"measurement": "TGI", "setting": "[5]", "value": 32.6, "unit": "µM"}, {"measurement": "GI50", "setting": "[6]", "value": 4.01, "unit": "µM"}, {"measurement": "TGI", "setting": "[6]", "value": 49.5, "unit": "µM"}, {"measurement": "GI50", "setting": "[7]", "value": 33.3, "unit": "µM"}, {"measurement": "TGI", "setting": "[7]", "value": "> 100", "unit": "µM"}, {"measurement": "GI50", "setting": "[8]", "value": 13.6, "unit": "µM"}, {"measurement": "TGI", "setting": "[8]", "value": 51.1, "unit": "µM"}, {"measurement": "GI50", "setting": "[9]", "value": 18.4, "unit": "µM"}, {"measurement": "TGI", "setting": "[9]", "value": 50.4, "unit": "µM"}, {"measurement": "GI50", "setting": "[10]", "value": 20.6, "unit": "µM"}, {"measurement": "TGI", "setting": "[10]", "value": 41.3, "unit": "µM"}, {"measurement": "GI50", "setting": "[11]", "value": 17.6, "unit": "µM"}, {"measurement": "TGI", "setting": "[11]", "value": 32.6, "unit": "µM"}, {"measurement": "GI50", "setting": "[12]", "value": 18.2, "unit": "µM"}, {"measurement": "TGI", "setting": "[12]", "value": 41.1, "unit": "µM"}, {"measurement": "GI50", "setting": "[13]", "value": 15.1, "unit": "µM"}, {"measurement": "TGI", "setting": "[13]", "value": 35.7, "unit": "µM"}, {"measurement": "GI50", "setting": "[14]", "value": 20.8, "unit": "µM"}, {"measurement": "TGI", "setting": "[14]", "value": 36.4, "unit": "µM"}, {"measurement": "GI50", "setting": "[15]", "value": 12.2, "unit": "µM"}, {"measurement": "TGI", "setting": "[15]", "value": 30.5, "unit": "µM"}, {"measurement": "GI50", "setting": "[16]", "value": 15.4, "unit": "µM"}, {"measurement": "TGI", "setting": "[16]", "value": 40.7, "unit": "µM"}, {"measurement": "GI50", "setting": "[17]", "value": 4, "unit": "µM"}, {"measurement": "TGI", "setting": "[17]", "value": "> 100", "unit": "µM"}, {"measurement": "GI50", "setting": "[18]", "value": 16.9, "unit": "µM"}, {"measurement": "TGI", "setting": "[18]", "value": 34.8, "unit": "µM"}, {"measurement": "GI50", "setting": "[19]", "value": 18.8, "unit": "µM"}, {"measurement": "TGI", "setting": "[19]", "value": 48.2, "unit": "µM"}, {"measurement": "GI50", "setting": "[20]", "value": 6.54, "unit": "µM"}, {"measurement": "TGI", "setting": "[20]", "value": 20.7, "unit": "µM"}, {"measurement": "GI50", "setting": "[21]", "value": 12.7, "unit": "µM"}, {"measurement": "TGI", "setting": "[21]", "value": 29.8, "unit": "µM"}, {"measurement": "GI50", "setting": "[22]", "value": 15.4, "unit": "µM"}, {"measurement": "TGI", "setting": "[22]", "value": 36.5, "unit": "µM"}, {"measurement": "GI50", "setting": "[23]", "value": 6.56, "unit": "µM"}, {"measurement": "TGI", "setting": "[23]", "value": 20.4, "unit": "µM"}, {"measurement": "GI50", "setting": "[24]", "value": 10.3, "unit": "µM"}, {"measurement": "TGI", "setting": "[24]", "value": "> 100", "unit": "µM"}, {"measurement": "GI50", "setting": "[25]", "value": 29.4, "unit": "µM"}, {"measurement": "TGI", "setting": "[25]", "value": 56.5, "unit": "µM"}, {"measurement": "GI50", "setting": "[26]", "value": 10.6, "unit": "µM"}, {"measurement": "TGI", "setting": "[26]", "value": 24.5, "unit": "µM"}, {"measurement": "GI50", "setting": "[27]", "value": 10.4, "unit": "µM"}, {"measurement": "TGI", "setting": "[27]", "value": 35.8, "unit": "µM"}, {"measurement": "GI50", "setting": "[28]", "value": 12.8, "unit": "µM"}, {"measurement": "TGI", "setting": "[28]", "value": 25.5, "unit": "µM"}, {"measurement": "GI50", "setting": "[29]", "value": 15.6, "unit": "µM"}, {"measurement": "TGI", "setting": "[29]", "value": 30.6, "unit": "µM"}, {"measurement": "GI50", "setting": "[30]", "value": 28.9, "unit": "µM"}, {"measurement": "TGI", "setting": "[30]", "value": 71.8, "unit": "µM"}, {"measurement": "GI50", "setting": "[31]", "value": 10.9, "unit": "µM"}, {"measurement": "TGI", "setting": "[31]", "value": 24.4, "unit": "µM"}, {"measurement": "GI50", "setting": "[32]", "value": 3.44, "unit": "µM"}, {"measurement": "TGI", "setting": "[32]", "value": 16.2, "unit": "µM"}, {"measurement": "GI50", "setting": "[33]", "value": 2390, "unit": "nM"}, {"measurement": "TGI", "setting": "[33]", "value": 7.75, "unit": "µM"}, {"measurement": "GI50", "setting": "[34]", "value": 15.4, "unit": "µM"}, {"measurement": "TGI", "setting": "[34]", "value": 35.4, "unit": "µM"}, {"measurement": "GI50", "setting": "[35]", "value": 18.5, "unit": "µM"}, {"measurement": "TGI", "setting": "[35]", "value": 36.2, "unit": "µM"}, {"measurement": "GI50", "setting": "[36]", "value": 18.1, "unit": "µM"}, {"measurement": "TGI", "setting": "[36]", "value": 37.1, "unit": "µM"}, {"measurement": "GI50", "setting": "[37]", "value": 16.1, "unit": "µM"}, {"measurement": "TGI", "setting": "[37]", "value": 31.7, "unit": "µM"}, {"measurement": "GI50", "setting": "[38]", "value": 12.6, "unit": "µM"}, {"measurement": "TGI", "setting": "[38]", "value": 26.3, "unit": "µM"}, {"measurement": "GI50", "setting": "[39]", "value": 2990, "unit": "nM"}, {"measurement": "TGI", "setting": "[39]", "value": 11.3, "unit": "µM"}, {"measurement": "GI50", "setting": "[40]", "value": 20.9, "unit": "µM"}, {"measurement": "TGI", "setting": "[40]", "value": 35.3, "unit": "µM"}, {"measurement": "GI50", "setting": "[41]", "value": 17.5, "unit": "µM"}, {"measurement": "TGI", "setting": "[41]", "value": 33.3, "unit": "µM"}, {"measurement": "GI50", "setting": "[42]", "value": 2470, "unit": "nM"}, {"measurement": "TGI", "setting": "[42]", "value": 6.61, "unit": "µM"}, {"measurement": "GI50", "setting": "[43]", "value": 12.9, "unit": "µM"}, {"measurement": "TGI", "setting": "[43]", "value": 25.9, "unit": "µM"}, {"measurement": "GI50", "setting": "[44]", "value": 22.7, "unit": "µM"}, {"measurement": "TGI", "setting": "[44]", "value": 58.4, "unit": "µM"}, {"measurement": "GI50", "setting": "[45]", "value": 5.31, "unit": "µM"}, {"measurement": "TGI", "setting": "[45]", "value": "> 100", "unit": "µM"}, {"measurement": "GI50", "setting": "[46]", "value": 10, "unit": "µM"}, {"measurement": "TGI", "setting": "[46]", "value": 27.4, "unit": "µM"}, {"measurement": "GI50", "setting": "[47]", "value": 13, "unit": "µM"}, {"measurement": "TGI", "setting": "[47]", "value": 25.7, "unit": "µM"}, {"measurement": "GI50", "setting": "[48]", "value": 11.7, "unit": "µM"}, {"measurement": "TGI", "setting": "[48]", "value": 24.6, "unit": "µM"}, {"measurement": "GI50", "setting": "[49]", "value": 14.4, "unit": "µM"}, {"measurement": "TGI", "setting": "[49]", "value": 28.5, "unit": "µM"}, {"measurement": "GI50", "setting": "[50]", "value": 11.8, "unit": "µM"}, {"measurement": "TGI", "setting": "[50]", "value": 24.1, "unit": "µM"}, {"measurement": "GI50", "setting": "[51]", "value": 22.4, "unit": "µM"}, {"measurement": "TGI", "setting": "[51]", "value": 40, "unit": "µM"}, {"measurement": "GI50", "setting": "[52]", "value": 4.38, "unit": "µM"}, {"measurement": "TGI", "setting": "[52]", "value": 15.6, "unit": "µM"}]}]}
